Laboratory results from patent US12459951B2, “Compounds that interact with RAS superfamily proteins for treatment of cancers, inflammatory diseases, rasopathies, and fibrotic disease” (SHY Therapeutics, LLC, priority 2022, dated 2025).

Legend:
Rho-A = molecular target: T1, Rho-A (Homo sapiens, UniProt P61586); experiment: Ras GTP Binding Domain Inhibition Assay (Ras Superfamily Assay); conditions: read-out: Rho-A: % inh..
T1 construct: made in house
Procedure, shortened: (§1)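 Ni-plate capture of His-tagged protein (10-30 μg/mL, o/n 4° C); cpd 20 μM or dilution series, 1% DMSO, 3 h RT ± Sos 556-1049 last h; 100 nM Cy-labelled GTP 45 min RT; 3× wash; fluorescence read.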

KRas Q61H mutant = experiment: as above; conditions: 20 μM compound; for KRas Q61H mutant + SOS: % inh.: with SOS; for KRas Q61H mutant: % inh.: without SOS
Procedure, shortened: as §1

Rac-1 = molecular target: T2, Rac-1 (Homo sapiens, UniProt P63000); experiment: as above; conditions: read-out: Rac-1: % inh.
T2 construct: made in house
Procedure, shortened: as §1

Akt phosphorylation = experiment: Akt Phosphorylation Assay (western blot), Panc-1; assay type: cell-based, human; conditions: at 10 μM, * = activation
Procedure, shortened: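 Phospho-Akt (Ser473) was measured by western blot in lysates of KRas G12D Panc-1 cells exposed to test compound for 6 h at 37 °C, either at 10 μM final with 0.3% DMSO or as serial dilutions for IC50. One format used overnight 0.5% FBS starvation followed by a 15 min pulse of 1.5 ng/ml EGF. The other used cells in 10% FBS with no stimulation.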

IL6 = experiment: IL-6 Quantification Assay (ELISA), LPS-stimulated RAW 264.7; assay type: cell-based; set-up: inhibition: dose or concentration left out as unconfirmed; conditions: Mus musculus, RAW264.7; read-out: IL-6: % inh.
TNF-alpha = TNF-alpha Quantification Assay (ELISA), LPS-stimulated RAW 264.7; assay type: cell-based; conditions: Mus musculus, RAW264.7; at 10 μM; read-out: TNFα: % inh.

T1 sequence (P61586 whole entry, the tested form may be a part): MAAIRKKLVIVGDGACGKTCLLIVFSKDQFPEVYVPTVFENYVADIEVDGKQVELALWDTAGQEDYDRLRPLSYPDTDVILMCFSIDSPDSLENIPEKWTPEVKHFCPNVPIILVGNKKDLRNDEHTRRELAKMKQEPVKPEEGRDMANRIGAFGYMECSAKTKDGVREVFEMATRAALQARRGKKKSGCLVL

SMILES | inhibition at 20 µM (Rho-A) | KRas Q61H mutant + SOS: % inh. (KRas Q61H mutant) | KRas Q61H mutant: % inh. (KRas Q61H mutant) | inhibition at 20 µM (Rac-1) | % inh of Akt phosphorylation in Panc-1 (Akt phosphorylation) | inhibition (IL6) | inhibition at 10 µM (TNF-alpha)
Cc1c(-c2ccn(C(C)C)n2)cn2nc(-c3nccn3C)nc(Nc3ncccn3)c12 [Compound 54, 6-(1-Isopropyl-1H-pyrazol-3-yl)-5-methyl-2-(1-methyl-1H-imidazol-2-yl)-N-(pyrimidin-2-yl)pyrrolo[2,1-f][1,2,4]triazin-4-amine] | 76 to 100% | D (D = 76-100% inhibition) | D (D = 76-100% inhibition) | 76 to 100% | B* (26-49% activation) | 25 to 49% | 1 to 24%
Cc1c(-c2ccn(C(C)C)n2)cn2nc(-c3nccn3C)nc(Nc3ccncn3)c12 [Compound 55, 6-(1-Isopropyl-1H-pyrazol-3-yl)-5-methyl-2-(1-methyl-1H-imidazol-2-yl)-N-(pyrimidin-4-yl)pyrrolo[2,1-f][1,2,4]triazin-4-amine] | 76 to 100% | D (D = 76-100% inhibition) | D (D = 76-100% inhibition) | 76 to 100% | A* (1-25% activation) | 1 to 24% | 1 to 24%
COc1cnc(Nc2nc(-c3nccn3C)nn3cc(-c4ccn(C(C)C)n4)c(C)c23)nc1 [Compound 56, 6-(1-Isopropyl-1H-pyrazol-3-yl)-N-(5-methoxypyrimidin-2-yl)-5-methyl-2-(1-methyl-1H-imidazol-2-yl)pyrrolo[2,1-f][1,2,4]triazin-4-amine] | 50 to 75% | D (D = 76-100% inhibition) | C (C = 50-75% inhibition) | 50 to 75% | B* (26-49% activation) | 25 to 49% | 1 to 24%
Cc1c(-c2ccn(C(C)C)n2)cn2nc(-c3nccn3C)nc(Nc3ccccn3)c12 [Compound 57, 6-(1-Isopropyl-1H-pyrazol-3-yl)-5-methyl-2-(1-methyl-1H-imidazol-2-yl)-N-(pyridin-2-yl)pyrrolo[2,1-f][1,2,4]triazin-4-amine] | 76 to 100% | D (D = 76-100% inhibition) | D (D = 76-100% inhibition) | 76 to 100% | D* (85-100% activation) | 1 to 24% | 0%
Cc1c(-c2ccn(C(C)C)n2)cn2nc(-c3nccn3C)nc(Nc3nnco3)c12 [Compound 59, N-(6-(1-Isopropyl-1H-pyrazol-3-yl)-5-methyl-2-(1-methyl-1H-imidazol-2-yl)pyrrolo[2,1-f][1,2,4]triazin-4-yl)-1,3,4-oxadiazol-2-amine] | 76 to 100% | D (D = 76-100% inhibition) | D (D = 76-100% inhibition) | 76 to 100% | C* (46-84% activation) | 25 to 49% | 1 to 24%
Cc1c(-c2ccn(C(C)C)n2)cn2nc(-c3nccn3C)nc(Nc3ncco3)c12 [Compound 60, N-(6-(1-Isopropyl-1H-pyrazol-3-yl)-5-methyl-2-(1-methyl-1H-imidazol-2-yl)pyrrolo[2,1-f][1,2,4]triazin-4-yl)oxazol-2-amine] | 1 to 25% | C (C = 50-75% inhibition) | B (B = 26-49% inhibition) | 1 to 25% | D* (85-100% activation) | 0% | 0%
Cc1c(-c2ccn(C(C)C)n2)cn2nc(-c3nccn3C)nc(Nc3cnccn3)c12 [Compound 62, 6-(1-Isopropyl-1H-pyrazol-3-yl)-5-methyl-2-(1-methyl-1H-imidazol-2-yl)-N-(pyrazin-2-yl)pyrrolo[2,1-f][1,2,4]triazin-4-amine] | 26 to 49% | A (A = 1-25% inhibition) | A (A = 1-25% inhibition) | 50 to 75% | D* (85-100% activation) | 25 to 49% | 1 to 24%
Cc1c(-c2ccn(C(C)C)n2)cn2nc(-c3nccn3C)nc(Nc3nnc(C4CC4)o3)c12 [Compound 67, 5-Cyclopropyl-N-(6-(1-isopropyl-1H-pyrazol-3-yl)-5-methyl-2-(1-methyl-1H-imidazol-2-yl)pyrrolo[2,1-f][1,2,4]triazin-4-yl)-1,3,4-oxadiazol-2-amine] | 76 to 100% | C (C = 50-75% inhibition) | C (C = 50-75% inhibition) | 50 to 75% | D* (85-100% activation) | 75 to 100% | 50 to 74%

Now from value to compound, other results behind:

inhibition at 20 µM (Rho-A) | KRas Q61H mutant + SOS: % inh. (KRas Q61H mutant) | KRas Q61H mutant: % inh. (KRas Q61H mutant) | inhibition at 20 µM (Rac-1) | SMILES | % inh of Akt phosphorylation in Panc-1 (Akt phosphorylation) | inhibition (IL6) | inhibition at 10 µM (TNF-alpha)
76 to 100% | D (D = 76-100% inhibition) | D (D = 76-100% inhibition) | 76 to 100% | COc1ccnc(Nc2nc(-c3nccn3C)nn3cc(-c4ccn(C(C)C)n4)c(C)c23)n1 [Compound 53, 6-(1-Isopropyl-1H-pyrazol-3-yl)-N-(4-methoxypyrimidin-2-yl)-5-methyl-2-(1-methyl-1H-imidazol-2-yl)pyrrolo[2,1-f][1,2,4]triazin-4-amine] | A* (1-25% activation) | 50 to 74% | 1 to 24%
76 to 100% | D (D = 76-100% inhibition) | C (C = 50-75% inhibition) | 76 to 100% | COc1ccnc(Nc2nc(-c3nccn3C)nn3cc(-c4ccn(C(C)C)n4)c(C)c23)c1 [Compound 58, 6-(1-Isopropyl-1H-pyrazol-3-yl)-N-(4-methoxypyridin-2-yl)-5-methyl-2-(1-methyl-1H-imidazol-2-yl)pyrrolo[2,1-f][1,2,4]triazin-4-amine] | A* (1-25% activation) | 25 to 49% | 1 to 24%
76 to 100% | D (D = 76-100% inhibition) | D (D = 76-100% inhibition) | 76 to 100% | Cc1c(-c2ccn(C(C)C)n2)cn2nc(-c3nccn3C)nc(Nc3ccn(C)n3)c12 [Compound 61, 6-(1-Isopropyl-1H-pyrazol-3-yl)-5-methyl-2-(1-methyl-1H-imidazol-2-yl)-N-(1-methyl-1H-pyrazol-3-yl)pyrrolo[2,1-f][1,2,4]triazin-4-amine] | C* (46-84% activation) | 1 to 24% | 1 to 24%
76 to 100% | D (D = 76-100% inhibition) | D (D = 76-100% inhibition) | 76 to 100% | COc1cc(Nc2nc(-c3nccn3C)nn3cc(-c4ccn(C)n4)c(C)c23)ncn1 [Compound 63, N-(6-Methoxypyrimidin-4-yl)-5-methyl-2-(1-methyl-1H-imidazol-2-yl)-6-(1-methyl-1H-pyrazol-3-yl)pyrrolo[2,1-f][1,2,4]triazin-4-amine] | D* (85-100% activation) | 1 to 24% | 1 to 24%
76 to 100% | D (D = 76-100% inhibition) | D (D = 76-100% inhibition) | 76 to 100% | CCn1ccc(-c2cn3nc(-c4nccn4C)nc(Nc4cc(OC)ncn4)c3c2C)n1 [Compound 64, 6-(1-Ethyl-1H-pyrazol-3-yl)-N-(6-methoxypyrimidin-4-yl)-5-methyl-2-(1-methyl-1H-imidazol-2-yl)pyrrolo[2,1-f][1,2,4]triazin-4-amine] | D* (85-100% activation) | 1 to 24% | 0%
76 to 100% | C (C = 50-75% inhibition) | C (C = 50-75% inhibition) | 76 to 100% | COc1cc(Nc2nc(-c3nccn3C)nn3cc(-c4cccc(OC)n4)c(C)c23)ncn1 [Compound 65, 6-(6-Methoxypyridin-2-yl)-N-(6-methoxypyrimidin-4-yl)-5-methyl-2-(1-methyl-1H-imidazol-2-yl)pyrrolo[2,1-f][1,2,4]triazin-4-amine] | D* (85-100% activation) | 1 to 24% | 1 to 24%
76 to 100% | D (D = 76-100% inhibition) | D (D = 76-100% inhibition) | 76 to 100% | COc1ccc(-c2cn3nc(-c4nccn4C)nc(Nc4cc(OC)ncn4)c3c2C)cn1 [Compound 66, 6-(6-Methoxypyridin-3-yl)-N-(6-methoxypyrimidin-4-yl)-5-methyl-2-(1-methyl-1H-imidazol-2-yl)pyrrolo[2,1-f][1,2,4]triazin-4-amine] | D* (85-100% activation) | 1 to 24% | 1 to 24%
